Among the data in ChEMBL document CHEMBL5046244, “Targeted Covalent Inhibition of Small CTD Phosphatase 1 to Promote the Degradation of the REST Transcription Factor in Human Cells” (J Med Chem, 2022) are Activity values, retold here.

Calls of active or inactive are those of the source. No cut-off for these calls is given here.

In the test the target is T1, Carboxy-terminal domain RNA polymerase II polypeptide A small phosphatase 1 (Homo sapiens) (UniProt Q9GZU7).
T1 sequence (whole entry): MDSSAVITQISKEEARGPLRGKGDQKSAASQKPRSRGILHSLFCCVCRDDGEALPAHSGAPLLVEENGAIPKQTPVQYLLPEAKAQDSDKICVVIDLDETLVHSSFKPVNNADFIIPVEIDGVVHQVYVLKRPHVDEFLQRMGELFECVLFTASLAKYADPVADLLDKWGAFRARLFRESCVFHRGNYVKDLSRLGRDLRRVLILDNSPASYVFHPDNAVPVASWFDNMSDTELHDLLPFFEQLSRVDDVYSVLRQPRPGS
Kind of test: Binding affinity to wild type human SCP1 assessed as covalent bond formation at 50 uM incubated for 18 hrs.

Consider `C#CCCC(=O)NCCCNC(=O)C1=Cc2ccccc2S1(=O)=O`, for which the outcome was inactive.
